Measured values taken from patent US10858362B2, “Imidazopyrazinones as PDE1 inhibitors” (H. Lundbeck A/S, priority 2015, dated 2020).

Columns and labels:
Format in all cases: biochemical
[1] = target: PDE1A (Homo sapiens (Human), UniProt P54750); assay: PDE1 inhibition assay, PDE1A; settings: for IC50: 15 nM tritium labelled cAMP
Protocol: (§1) Reactions were initiated by addition of the cyclic nucleotide substrate, and reactions were allowed to proceed for 1 h at room temperature before being terminated through mixing with 20 μL (0.2 mg) yttrium silicate SPA beads (PerkinElmer).

[2] = target: PDE1C (Homo sapiens (Human), UniProt Q14123); assay: PDE1 inhibition assay, PDE1C; settings: for IC50: 15 nM tritium labelled cAMP
Protocol: as §1, with “(PerkinElmer). The beads were allowed to settle for 1 h in the dark before the plates were counted in a Wallac 1450 Microbeta counter.” for “(PerkinElmer).”

[3] = target: PDE1B (Homo sapiens (Human), UniProt Q01064); assay: PDE1 inhibition assay, PDE1B; settings: 15 nM tritium labelled cAMP
Protocol: as §1, with “(PerkinElmer). The beads were allowed to settle for 1 h in the dark before the plates were counted in a Wallac 1450 Microbeta counter.” for “(PerkinElmer).”

[4] = target: PDE9 (Homo sapiens (Human), UniProt O76083); assay: PDE9 inhibition assay
Method in brief: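 Human PDE9 in 50 mM HEPES pH 7.6, 10 mM MgCl2, 0.02% Tween20, enzyme set to convert 20-25% of 10 nM ^3H-cAMP substrate; inhibitors at varying amounts. 1 hr incubation, stopped with yttrium silicate SPA beads, settled 1 hr in dark, then scintillation counted.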

Sequence of PDE1B (Q01064 whole entry): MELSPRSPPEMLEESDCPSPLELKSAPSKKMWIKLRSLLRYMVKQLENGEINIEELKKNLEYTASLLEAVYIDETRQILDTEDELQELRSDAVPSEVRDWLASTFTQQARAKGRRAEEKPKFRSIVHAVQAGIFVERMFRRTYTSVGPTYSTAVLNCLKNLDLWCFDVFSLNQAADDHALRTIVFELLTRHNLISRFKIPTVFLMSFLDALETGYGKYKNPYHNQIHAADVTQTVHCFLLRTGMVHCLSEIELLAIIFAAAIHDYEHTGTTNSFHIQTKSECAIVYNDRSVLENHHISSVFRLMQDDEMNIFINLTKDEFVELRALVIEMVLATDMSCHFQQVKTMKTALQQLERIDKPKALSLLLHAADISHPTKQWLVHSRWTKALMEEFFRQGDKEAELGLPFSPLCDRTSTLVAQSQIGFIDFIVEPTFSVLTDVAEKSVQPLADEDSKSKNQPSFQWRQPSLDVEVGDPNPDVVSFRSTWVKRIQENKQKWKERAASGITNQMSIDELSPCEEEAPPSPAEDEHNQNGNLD
Sequence of PDE1A (P54750 whole entry): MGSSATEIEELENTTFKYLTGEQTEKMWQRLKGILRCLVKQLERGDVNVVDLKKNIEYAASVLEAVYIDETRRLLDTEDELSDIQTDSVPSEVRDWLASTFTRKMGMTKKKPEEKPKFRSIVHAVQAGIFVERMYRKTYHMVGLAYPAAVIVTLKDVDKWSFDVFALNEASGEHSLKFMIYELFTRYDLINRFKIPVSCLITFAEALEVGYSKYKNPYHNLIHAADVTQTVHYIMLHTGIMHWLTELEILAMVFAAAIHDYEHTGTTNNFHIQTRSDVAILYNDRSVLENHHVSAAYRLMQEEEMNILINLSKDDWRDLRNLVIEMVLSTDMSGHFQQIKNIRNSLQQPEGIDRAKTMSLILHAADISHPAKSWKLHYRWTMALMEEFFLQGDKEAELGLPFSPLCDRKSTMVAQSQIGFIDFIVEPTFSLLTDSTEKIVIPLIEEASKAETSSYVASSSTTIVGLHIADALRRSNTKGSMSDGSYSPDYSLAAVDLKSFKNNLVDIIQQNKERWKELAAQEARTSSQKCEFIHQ
Sequence of PDE1C (Q14123 whole entry): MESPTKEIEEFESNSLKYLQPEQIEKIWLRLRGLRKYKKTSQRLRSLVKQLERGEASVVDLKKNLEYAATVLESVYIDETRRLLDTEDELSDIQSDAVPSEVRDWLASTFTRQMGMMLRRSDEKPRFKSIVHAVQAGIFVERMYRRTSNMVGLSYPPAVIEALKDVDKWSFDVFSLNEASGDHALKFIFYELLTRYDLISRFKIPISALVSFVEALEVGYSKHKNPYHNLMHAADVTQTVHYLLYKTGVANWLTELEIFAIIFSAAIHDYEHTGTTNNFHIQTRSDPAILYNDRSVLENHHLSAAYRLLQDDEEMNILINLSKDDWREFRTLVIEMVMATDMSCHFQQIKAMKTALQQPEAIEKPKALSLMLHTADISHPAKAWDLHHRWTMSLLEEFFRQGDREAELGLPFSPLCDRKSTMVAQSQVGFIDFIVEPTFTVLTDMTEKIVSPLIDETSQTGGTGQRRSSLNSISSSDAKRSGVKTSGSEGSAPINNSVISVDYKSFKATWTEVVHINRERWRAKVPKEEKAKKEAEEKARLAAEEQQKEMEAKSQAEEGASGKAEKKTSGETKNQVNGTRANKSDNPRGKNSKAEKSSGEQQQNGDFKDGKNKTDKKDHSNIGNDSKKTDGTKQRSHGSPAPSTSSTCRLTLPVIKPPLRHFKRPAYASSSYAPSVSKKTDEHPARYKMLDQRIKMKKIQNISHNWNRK
Sequence of PDE9 (O76083 whole entry): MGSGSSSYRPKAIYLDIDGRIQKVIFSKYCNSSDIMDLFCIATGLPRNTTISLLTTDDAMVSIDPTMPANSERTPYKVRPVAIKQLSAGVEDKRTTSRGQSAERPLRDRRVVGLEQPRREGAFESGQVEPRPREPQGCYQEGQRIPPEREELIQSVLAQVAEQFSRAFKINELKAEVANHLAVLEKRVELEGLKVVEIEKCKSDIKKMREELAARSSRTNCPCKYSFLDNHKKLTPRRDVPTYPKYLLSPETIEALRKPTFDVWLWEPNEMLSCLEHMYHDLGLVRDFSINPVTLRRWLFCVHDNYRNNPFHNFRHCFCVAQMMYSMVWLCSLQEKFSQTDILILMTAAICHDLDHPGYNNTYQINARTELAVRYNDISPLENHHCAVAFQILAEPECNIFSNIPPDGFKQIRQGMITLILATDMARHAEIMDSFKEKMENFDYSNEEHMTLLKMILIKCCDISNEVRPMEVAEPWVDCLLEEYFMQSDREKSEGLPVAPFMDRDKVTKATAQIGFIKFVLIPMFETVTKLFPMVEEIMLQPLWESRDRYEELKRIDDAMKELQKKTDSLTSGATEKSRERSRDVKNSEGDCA

| SMILES | IC50 [1] | IC50 [2] | IC50 [3] | inhibition at 10 µM [4] | % inhibition of PDE9 at 10 microM [4] | inhibition at 1 µM ([1]; read-out: PDE1A, % inhibition (at 1 μM)) | inhibition at 1 µM ([2]; read-out: PDE1C, % inhibition (at 1 μM)) | PDE1A, % inhibition (at 1 μM) ([1]; at 1 μM) |
| --- | --- | --- | --- | --- | --- | --- | --- | --- |
| COCC(C)(C)c1ncc2c(=O)n(Cc3ccc(OC)cc3)c(C)cn12 [Example 76, 3-(1-methoxy-2-methylpropan-2-yl)-7-(4-methoxybenzyl)-6-methylimidazo[1,5-a]pyrazin-8(7H)-one] | 122 nM | 126 nM | 44 nM | -14% |  |  |  |  |
| Cc1cn2c(C3CCOCC3)ncc2c(=O)n1C[C@H]1CC[C@H](C)CC1 [66, trans] | 35 nM | 46 nM | 11 nM |  | −2% |  |  |  |
| Cc1cn2c(C3(C)CC3)ncc2c(=O)n1Cc1cccc(F)c1 [Example 33, 7-(3-fluorobenzyl)-6-methyl-3-(1-methylcyclopropyl)imidazo[1,5-a]pyrazin-8(7H)-one] | 94 nM | 7 nM | 52 nM | -2% |  |  |  |  |
| Cc1cn2c(C3CCOCC3)ncc2c(=O)n1Cc1ccc2c(c1)OCO2 [Example 50, 7-(benzo[d][1,3]dioxol-5-ylmethyl)-6-methyl-3-(tetrahydro-2H-pyran-4-yl)imidazo[1,5-a]pyrazin-8(7H)-one] | 50 nM | 38 nM | 16 nM | 12% |  |  |  |  |
| Cc1cn2c([C@@H]3CCCOC3)ncc2c(=O)n1Cc1cccc(F)c1 (single isomer, unassigned; isomer 1) [100, isomer 1] | 306 nM | 43 nM | 223 nM |  | 11% |  |  |  |
| O=c1c2cnc(C3CC3)n2ccn1CC1CCCCC1 [Example 8, 7-(Cyclohexylmethyl)-3-cyclopropylimidazo[1,5-a]pyrazin-8(7H)-one] | 252 nM | 100 nM | 67 nM | 9% |  |  |  |  |
| CC(=O)Nc1ccc(Cn2c(C)cn3c(C4CCOCC4)ncc3c2=O)cc1 [Example 47, N-(4-((6-methyl-8-oxo-3-(tetrahydro-2H-pyran-4-yl)imidazo[1,5-a]pyrazin-7(8H)-yl)methyl)phenyl)acetamide] |  |  | 388 nM | 10% |  | 0% | 10% |  |
| Cc1cn2c([C@@H]3CCCCO3)ncc2c(=O)n1Cc1cccc(F)c1 (single isomer, unassigned; isomer 1) [30, isomer 1] |  | 225 nM | 615 nM |  | −11% |  |  | 20% |
